Data taken from paper PMC11106742, “Computational Design of Cyclic Peptide Inhibitors of a Bacterial Membrane Lipoprotein Peptidase” (ACS Chemical Biology, 2024).
In brackets after ≈: the same amount, converted by molar mass. Read-outs that look alike come from different tables or passages of the source. Square brackets hold non-standard residues; d marks the D form. Peptide text beside a SMILES is read from it. Gly(N-dodecyl) = CCCCCCCCCCCCNCC(=O)O; aIle = CC[C@@H](C)[C@H](N)C(=O)O; aThr = C[C@H](O)[C@H](N)C(=O)O; NMeL = CN[C@@H](CC(C)C)C(=O)O; βAla = NCCC(=O)O

Assays:
[1] = test system: P. aeruginosa 950; test: microbe, parasite or virus in culture; format: cell-based, Pseudomonas aeruginosa
Description: (§1) MIC values were determined in cation-adjusted Mueller-Hinton broth using the broth microdilution method according to CLSI guidelines. Plates were incubated for 16 to 24 h at 37 °C.
(§2) Six biological replicates were performed across three different 2-fold dilution series, starting at concentration of 100 µg/ml, 80 µg/ml or 64 µg/ml. The lowest concentration of antimicrobial inhibiting growth was taken as the MIC. This was established by visual inspection of the medium after the incubation period with a lack of turbidity of the growth medium indicating no growth.[3] […]

[2] = target: T1, PaLspA (Pseudomonas aeruginosa, UniProt Q9HVM5); test: biochemical
T1 construct: made in house
T1 sequence (Q9HVM5 1-169): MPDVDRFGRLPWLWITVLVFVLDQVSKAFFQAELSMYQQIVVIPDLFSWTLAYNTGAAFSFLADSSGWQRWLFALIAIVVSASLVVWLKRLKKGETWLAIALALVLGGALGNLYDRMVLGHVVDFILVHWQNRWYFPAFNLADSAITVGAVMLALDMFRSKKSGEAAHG
Description: These analogues were tested for activity against PaLspA using an in vitro fluorescence resonance energy transfer (FRET) activity assay.[21] LspA inhibition was detected by a change in fluorescence upon cleavage of a FRET peptide substrate containing an N-terminal quencher moiety and a C-terminal fluorophore.
(A) Structures of G2a and G2d. (B) Results of the FRET dose–response assays. PaLspA concentration was 40 nM, FRET substrate concentration was 50 μM, and the concentration of inhibitors globomycin, G2a, and G2d ranged from 0–3,000 nM. (C) SDS-PAGE gels and quantitation of the PaLspA gel-shift dose–response assays. ppICP concentration was 12 μM, DOPG concentration was 600 μM, and Lgt concentration was 1.2 μM. The Lgt-catalyzed reaction was allowed to proceed for 60 min at 37 °C, after which inhibitors (0–1000 nM) were added. The PaLspA reaction was initiated by the addition of 100 nM enzyme. The LspA reaction was allowed to proceed for 30 min at 37 °C before being quenched with SDS-PAGE loading buffer (62.5 mM Tris/HCl pH 6.8, 2.5% (w/v) SDS, 0.002% (w/v) bromophenol blue, 0.5 M β-mercaptoethanol, 10% (v/v) glycerol). Quantitation of the gel-shift assays was performed using Image Lab, and data were plotted using GraphPad Prism.
Materials: All reagents were obtained from commercial sources and used without additional purification. All aqueous solutions were prepared using ultrapure laboratory grade water (deionized, filtered, and sterilized) obtained from an in-house ELGA water purification system. […]
Expression and purification of PaLspA, Lgt, EcLspA and ppICP: PaLspA, Lgt and pre-proICP (ppICP) were expressed and purified using previously published protocols (Vogely et al, 2016).[1] EcLspA was expressed and purified as described for PaLspA, with the following modification. The lysis buffer was 50 mM Hepes pH 7.5, 150 mM NaCl, 1 mM TCEP, 10 %(v/v) glycerol. Isolated membranes, containing EcLspA, were solubilized with 1 %(v/v) FC12 for 2 h at […]

[3] = test system: E. coli ATCC25922; test: microbe, parasite or virus in culture; format: cell-based, Escherichia coli
Description: as §1, §2

[4] = test system: A. baumannii AB5075; test: microbe, parasite or virus in culture; format: cell-based, Acinetobacter baumannii
Description: as §1, §2

[5] = test system: A. baumannii AB17978; test: microbe, parasite or virus in culture; format: cell-based, Acinetobacter baumannii
Description: as §1, §2

| SMILES | MIC [1]; 950 [µg/mL] | IC50 [2] [nM] | MIC ([3]; ATCC25922) [µg/mL] | MIC ([4]; AB5075) [µg/mL] | MIC ([5]; AB17978) [µg/mL] | MIC ([1]; Pseudomonas aeruginosa, P. aeruginosa 950, cation-adjusted Mueller-Hinton broth, 16 to 24 h, 37 °C, read-out: MIC) [µg/mL] | MIC ([3]; Escherichia coli, E. coli ATCC25922, cation-adjusted Mueller-Hinton broth, 16 to 24 h, 37 °C, read-out: MIC) [µg/mL] | MIC ([4]; Acinetobacter baumannii, A. baumannii AB5075, cation-adjusted Mueller-Hinton broth, 16 to 24 h, 37 °C, read-out: MIC) [µg/mL] | MIC ([5]; Acinetobacter baumannii, A. baumannii AB17978, cation-adjusted Mueller-Hinton broth, 16 to 24 h, 37 °C, read-out: MIC) [µg/mL] |
| --- | --- | --- | --- | --- | --- | --- | --- | --- | --- |
| CCCCCCCCCCCCN1CC(=O)N(C)[C@@H](CC(C)C)C(=O)N[C@@H]([C@H](C)CC)C(=O)N[C@@H](CO)C(=O)N[C@@H]([C@H](C)O)C(=O)NCCC1=O [G2d] (cyclo([NMeL][aIle]S[aThr][βAla][Gly(N-dodecyl)])) | 32 (≈ 44.1 µM) | 157 ± 25 | 32 (≈ 44.1 µM) | 16 (≈ 22.1 µM) | 16 (≈ 22.1 µM) | – | – | – | – |
| CCCCCC[C@H]1OC(=O)CNC(=O)[C@H]([C@H](C)O)NC(=O)[C@H](CO)NC(=O)[C@H]([C@H](C)CC)NC(=O)[C@H](CC(C)C)N(C)C(=O)[C@@H]1C [globomycin, reference compound] | – | 40 | – | – | – | 16 (≈ 24.4 µM) | 10 (≈ 15.2 µM) | 32 (≈ 48.8 µM) | 16 (≈ 24.4 µM) |
